In publication PMC4820240 (Angewandte Chemie (International ed. in English), 2016):

Legend:
[1] = test system: human RBCs; details: read-out: EC50 RBCs (hemolysis); freshly isolated human RBCs
[2] = test system: HeLa cells; details: read-out: IC50 HeLa; toxicity towards HeLa cells
[3] = test system: MCF-7 cells; details: read-out: IC50 MCF-7; toxicity towards MCF-7 cells
[4] = test system: A549 cells; assay: Cytotoxicity of CPPs towards A549 cells; format: cell-based; details: read-out: IC50 A549; toxicity towards A549 cells
[5] = Serum stability in 25% serum solution; details: 25% serum solution as a function of time (Figure 4B legend)

For `N=C(N)NCCC[C@H](NC(=O)[C@H](CCCNC(=N)N)NC(=O)[C@H](CCCNC(=N)N)NC(=O)[C@H](CCCNC(=N)N)NC(=O)[C@H](CCCNC(=N)N)NC(=O)[C@H](CCCNC(=N)N)NC(=O)[C@H](CCCNC(=N)N)NC(=O)[C@@H](N)CCCNC(=N)N)C(N)=O` [R8], which EC50 [1] is on record?
Its EC50 is 371 µM.

What about the IC50 [2] of the same compound?
The IC50 was 269 µM.

What about the IC50 [3] of the same compound?
The IC50 was 170 µM.

And the IC50 [4]?
The IC50 was over 1000 µM.

What does the source list for `N=C(N)NCCC[C@H](NC(=O)CN)C(=O)N[C@@H](CCCCN)C(=O)N[C@@H](CCCCN)C(=O)N[C@@H](CCCNC(=N)N)C(=O)N[C@@H](CCCNC(=N)N)C(=O)N[C@@H](CCC(N)=O)C(=O)N[C@@H](CCCNC(=N)N)C(=O)N[C@@H](CCCNC(=N)N)C(=O)N[C@@H](CCCNC(=N)N)C(=O)N1CCC[C@H]1C(=O)N1CCC[C@H]1C(=O)N[C@@H](CCC(N)=O)C(N)=O` [TAT]?
t1/2, serum stability [5]: 1.7 h; EC50 [1]: 269 µM; IC50 [2]: > 1000 µM; IC50 [3]: 603 µM; IC50 [4]: > 1000 µM
